Experimental data: patent US20240166671A1, “Novel Stannic Protoporfin Compositions, Methods of Making, and Uses Thereof” (Renibus Therapeutics, Inc., priority 2022, published 2024)

Columns and labels:
[1] = system: cultured human tubule cells; test: Cell viability of cultured human tubule cells exposed to SnPP; type: cell-based; conditions: for % Viable Cells: n = 6, control 100%
Description: The composition of Example 1 and the Comparative Example were exposed to incubated cultured human tubule cells with different concentrations of SnPP.

HO-1 = test: HO-1/GAPDH mRNA (cortex) after IV FeS + SnPP, biomarker for oxidative stress; type: in vivo; conditions: combined with iron sucrose; HO-1 as indicator of oxidative stress
Description: The SnPP composition of Example 1 and the Comparative Example (1 micromole) were combined with iron sucrose (1 mg) to assess biomarkers for oxidative stress.

Structure (SMILES): C=CC1=C(C)C2=Cc3c(C=C)c(C)c4[n]3[Sn]([Cl])([Cl])[n]3c(c(C)c(CCC(=O)O)c3=CC3=NC(=C4)C(C)=C3CCC(=O)O)=CC1=N2 [Example 1, Stannic protoporfin]
- % Viable Cells ([1]; SnPP 10 nmol/mL): 97.9%
- % Viable Cells ([1]; SnPP 25 nmol/mL): 95.3%
- % Viable Cells ([1]; SnPP 75 nmol/mL): 88.9%
- cell killing ([1]; highest concentration of SnPP (75 nmol/mL)): 11%
- cell death relative to comparative example ([1]; human tubule cells): less cell death
- HO-1 induction relative to comparative example (HO-1): lower HO-1 induction
